In US7205162B1, “Artificial antibodies, method of producing the same and use thereof” (priority 1995, dated 2007):

Tests used:
[1] = Molecularly Imprinted Sorbent Assay (MIA), competitive binding of 3H-theophylline to anti-theophylline polymer; details: for Cross-reaction (%) ArtAb, Theophylline antibodies: molar ratio of theophylline to ligand giving 50% inhibition of 3H-theophylline binding to polymer, ligands added to drug free serum
[2] = system: natural antibodies (Ab's) against theophylline; details: data from ref 22; cited from earlier work
[3] = Molecularly Imprinted Sorbent Assay (MIA), competitive binding of 3H-diazepam to anti-diazepam polymer; details: molar ratio of diazepam to ligand giving 50% inhibition of 3H-diazepam binding to polymer; ligands added to drug free serum
[4] = system: natural antibodies (Ab's) against diazepam; details: data from ref 24; cited from earlier work
[5] = Scatchard plot analysis with radio-labelled ligand, anti-diazepam polymer
Excerpt: (§1) The equilibrium dissociation constants (KD) for binding of the drugs to the corresponding polymers were estimated by Scatchard plot analysis using radio-labelled ligands.

[6] = Scatchard plot analysis with radio-labelled ligand, anti-theophylline polymer; assay type: binding; details: LIGAND programme
Excerpt: as §1

Structure (SMILES)	Cross-reaction (%) ArtAb, Theophylline antibodies [1] [%]	Cross-reaction (%) Ab*, Theophylline antibodies [2] [%]	Cross-reaction (%) ArtAb, Diazepam antibodies [3] [%]	Cross-reaction (%) Ab**, Diazepam antibodies [4] [%]	also measured
Cn1c(=O)c2[nH]c(=O)[nH]c2n(C)c1=O [1,3-Dimethyluric acid]	<1	<1			
O=C1CN=C(c2ccccc2Cl)c2cc([N+](=O)[O-])ccc2N1 [Clonazepam]			9	5	
Cn1c(=O)[nH]c2[nH]c(=O)[nH]c2c1=O [1-Methyluric acid]	<1	<1			
Cn1c(=O)c2[nH]cnc2n(C)c1=O [[^3H]-theophylline]					time to binding equilibrium ([1]; 12.5 mg polymer, acetonitrile-acetic acid (99/1), room temperature): 8 h; share of the binding occurred within 3 h ([1]; within 3 h, acetonitrile-acetic acid (99/1), room temperature): 80%; share of the binding occurred within 5 h ([1]; within 5 h, acetonitrile-acetic acid (99/1), room temperature): 90%
O=c1[nH]c(=O)c2[nH]cnc2[nH]1 [Xanthine]	<1	<1			
CNC1=Nc2ccc(Cl)cc2C(c2ccccc2)=[N+]([O-])C1 [Chlordiazepoxid]			2	<1	
O=c1[nH]cnc2nc[nH]c12 [Hypoxanthine]	<1	<1			
Cn1cnc2c1c(=O)[nH]c(=O)n2C [Theobromine, 3,7-dimetylxanthine]		<1			
O=C1CN=C(c2ccccc2)c2cc(Cl)ccc2N1 [Demethyldiazepam, Desmethyldiazepam]			27	32	
Cc1nnc2n1-c1ccc(Cl)cc1C(c1ccccc1)=NC2 [Alprazolam]			40	44	
O=c1[nH]c(=O)c2[nH]c(=O)[nH]c2[nH]1 [Uric acid]	<1	<1			
CN1C(=O)CN=C(c2ccccc2)c2cc(Cl)ccc21 [Diazepam]			100	100	Kd ([5]; read-out: KD, high affinity binding sites, LIGAND programme): 37.6 nM; Kd ([5]; read-out: KD, low affinity binding sites, LIGAND programme): 73.6 nM
O=C1Nc2ccc(Cl)cc2C(c2ccccc2Cl)=NC1O (stereo not shown) [Lorazepam]			4	1	
Cn1c(=O)[nH]c(=O)c2[nH]cnc21 [3-Methylxantin, 3-methylxanthine]	7	2			cross-reactivity in MIA for theophylline (in words) [1]: some cross-reactivity
Cn1c(=O)c2c(ncn2CCO)n(C)c1=O [7-(β-Hydroxyethyl)-1,3-di-methylxanthine]	<1	<1			
Cn1c(=O)c2[nH]cnc2n(C)c1=O [Theophylline, 1,3-dimethylxanthine]	100	100			Kd ([6]; read-out: KD, high affinity binding sites): 346 nM; Kd ([6]; read-out: KD, low affinity binding sites): 65500 nM
